From publication PMC9481570, “A small molecule antagonist of SMN disrupts the interaction between SMN and RNAP II” (Nature Communications, 2022)
Read-outs that look alike come from different tables or passages of the source.

How the values were obtained:
[1] = target: T1, SMN Tudor domain (Homo sapiens, UniProt Q16637); test: ITC binding to Tudor domain of SMN
T1 construct: SMN (aa 82–147); His (N, cleaved yes); made in house; host or cells: E. coli BL21 (DE3) Codon plus RIL
From the text: The coding DNA fragments of following Tudor domains were cloned into pET28-MHL vector: SMN (aa 82–147), UHRF1 (aa 126–285), SMNDC1 (aa 53–130), TDRD3 (aa 554–611), SND1 (aa 650–910), TDRD2 (aa 327–420), FXR1 (aa 2–132), PHF1 (aa 28–87), SGF29 (aa 115–293), JMJD2A (aa 897–1101), 53BP1 (aa 1483–1606), SETDB1 (aa 190–410), LBR (aa 1–67), ZGPAT (aa 120–271). The coding regions of chromodomain of CBX7 (aa 8–62), PWWP domain of DNMT3A (aa 275–417), WD40 repeats of WDR5 (aa 24–334) and CW domain of ZCWPW2 (aa 21–78) were also subcloned into pET28-MHL vector to generate N-terminally His-tagged fusion protein. The MBT repeats of L3MBTL1 (aa 200–522) and L3MBTL2 (aa 170–625) were subcloned into pET28GST-LIC vector to generate N-terminally GST-His-tagged fusion protein. All the plasmids were generated by ligase independent cloning (Vazyme Biotech, C112 or ABclonal Technology, RK21020). […] The proteins were further purified by Superdex75 or Superdex200 gel-filtration column (GE Healthcare) in a buffer containing 20 mM Tris-HCl, pH 7.5, 150 mM NaCl and 1 mM DTT. For crystallization experiments, purified proteins were concentrated to 18 mg/mL for SMN, 23 mg/mL for UHRF1 and 10 mg/mL for TDRD3 in the gel-filtration buffer. All the mutations were introduced with the QuikChange II XL site-directed mutagenesis kit (Stratagene, 200522) and confirmed by DNA sequencing. Mutant proteins were also expressed in E. coli BL21 (DE3) Codon plus RIL and purified using the same procedures described above. The molecular weight of all protein samples was measured by mass spectrometry.
For the ITC measurement, the concentrated proteins were diluted into 20 mM Tris-HCl, pH 7.5, 150 mM NaCl (ITC buffer); the lyophilized compounds were dissolved in the same buffer, and the pH value was adjusted by adding 2 M NaOH or 2 M HCl. The compounds that could not be dissolved in the ITC buffer were dissolved in DMSO with the accessible highest concentration. Compound concentrations were calculated from the mass and the volume of the solvent. For the ITC assay with compound dissolved in DMSO, the protein was diluted by ITC buffer containing same final concentration of DMSO. All measurements were performed in duplicate at 25 °C, using a VP-ITC (MicroCal, Inc.), an iTC-200 (MicroCal, Inc.), or a Nano-ITC (TA, Inc.) microcalorimeter. The protein with a concentration of 50–100 μM was placed in the cell chamber, and the compounds with a concentration of 0.5–2 mM in syringe was injected in 25, 20, or 20 successive injections with a spacing of 180, 150, or 120 s for VP-ITC, iTC-200, or Nano-ITC, respectively, as previously described[30]–[32]. iTC-200 or Nano-ITC data were consistent with those from the VP-ITC instrument, based on ITC results of SMN-compound 1 detected by using all the instruments. Control experiments were performed under identical conditions to determine the heat signals that arise from injection of the compounds into the buffer. Data were fitted using the single-site binding model within the Origin software 7.0 package (MicroCal, Inc.) or the independent model within the Nano-Analyze software package (TA, Inc.).

[2] = system: R-loops in HEK293 cells; test: Global nuclear R-loop immunofluorescence (S9.6 antibody); format: cell-based, human; conditions: 20 μM, 72 h, S9.6 immunofluorescence
Method: Global nuclear R-loop detection was ascertained via immunofluorescence using the S9.6 antibody (Kerafast, ENH001)[58]. At 24 h prior to immunofluorescence, 40,000 cells were seeded on to Poly-L-Lysine (PLL) coated coverslips. Cells were fixed using 1% formaldehyde for 15 min, washed three times with PBS, permeabilized with 0.3% Triton X-100 and washed again three times with PBS. Coverslips were blocked using 5% BSA for 1 h at room temperature and transferred to humidified chambers for antibody incubations. Coverslips were incubated with 60 μL of monoclonal S9.6 antibody (Kerafast, ENH001, 1:500) for 1 h at room temperature. After washing with PBS, cells were incubated with a secondary goat anti-mouse Alexa Fluor 488 antibody (Thermo Fisher, A11001, 1:1000) for 1 h in a dark chamber. Following further washing and DAPI staining, coverslips were mounted onto microscope slides using DAKO fluorescent mounting medium (Agilent, S302380-2) and then sealed with nail polish. […] The coverslips were processed for immunofluorescence 24 h later using the primary antibodies monoclonal S9.6 (Kerafast, ENH001, 1:500), or polyclonal anti-RNase H1 (Proteintech, 15606-1-AP, 1:500) and the secondary antibodies goat anti-mouse Alexa Fluor 488 (Thermo Fisher, A11001, 1:1000) or goat anti-rabbit Alexa Fluor 568 (Thermo Fisher, A11011, 1:1000) to quantify R-loop and confirm RNase H1 overexpression, respectively. […]

[3] = ITC, Tudor domain of SMN wild type, 25 °C, read-out: Kd (SMN)

T1 sequence (Q16637 82-147): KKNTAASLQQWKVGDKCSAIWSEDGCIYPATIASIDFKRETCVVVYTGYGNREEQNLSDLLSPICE

| Structure (SMILES) | Kd [1, 3] | Kd ([1]; Supplementary Fig. 11a, iTC-200, read-out: Kd, ITC binding curve, SMN) | selectivity of SMN and SMNDC1 Tudor domains over TDRD3 ([1]; from ITC Kd) | selectivity over other tested methyllysine or methylarginine binding domains ([1]; from ITC Kd) | SMN binds more tightly than its physiological ligands ([1]; versus symmetric dimethylarginine or R1810me2s-POLR2A) | global nuclear R-loop levels in comparison to the DMSO controls [2] |
| --- | --- | --- | --- | --- | --- | --- |
| Cn1c2c(c(=N)c3c1CCC3)CCC2 [Compound 1, 4-methyl-2,3,4,5,6,7-hexahydrodicyclopenta[b,e]pyridin-8(1H)-imine] | 2.6 ± 0.1 µM | 3.9 ± 0.5 µM | ~ 4 fold | > 4 fold | 60–180 fold | significantly increased |
| CCCn1c2c(c(=N)c3c1CCC3)CCC2 [Compound 2, 4-propyl-2,3,4,5,6,7-hexahydrodicyclopenta[b,e]pyridin-8(1H)-imine] | 9.3 ± 0.6 µM | – | – | – | – | significantly increased |
